Measured values: publication PMC9206137, “Synergistic anti-SARS-CoV-2 activity of repurposed anti-parasitic drug combinations” (BMC Pharmacology & Toxicology, 2022)
“And” between values parts separate entries of the source, which are not always exact repeats. Identical values can stand only once.

What was measured:
SARS-CoV-2 [1] = experiment: Antiviral activity against SARS-CoV-2 in Vero E6 cells, plaque assay; assay type: cell-based
[2] = Cell viability assay (MTT) in Vero E6 cells; conditions: African green monkey, %cell viability, Vero E6, replicates
Experimental: Subsequently, the cell viability was assessed using MTT dyes (Invitrogen) in duplicate (Supplementary file 1). The procedure was described elsewhere. The viability of drug-treated cells was expressed as percent cell viability relative to 0.5% DMSO-treated cells.

SARS-CoV-2 [3] = experiment: Antiviral activity against SARS-CoV-2 in Vero E6 cells, one-step qRT-PCR (single drugs, two-drug combinations, synergy analysis); conditions: for %inhibition (qRT-PCR) / % inhibition: replicates; for % inhibition: Vero E6 cells
SARS-CoV-2 [4] = conditions: because of the expression of TMPRSS2; cited from earlier work

Structure (SMILES): CCN(CC)CCCC(C)Nc1ccnc2cc(Cl)ccc12 (stereo not shown) [Chloroquine, chloroquine]
- inhibition at 0.625 µM (SARS-CoV-2 [1]; Severe acute respiratory syndrome coronavirus 2, Vero C1008, Vero E6, chloroquine 0.625 uM, replicates): 50%
- inhibition at 1.25 µM (SARS-CoV-2 [1]; Severe acute respiratory syndrome coronavirus 2, Vero C1008, Vero E6, chloroquine 1.25 uM, replicates): 61.4%
- inhibition at 2.5 µM (SARS-CoV-2 [1]; Severe acute respiratory syndrome coronavirus 2, Vero C1008, Vero E6, chloroquine 2.5 uM, replicates): 70%
- inhibition at 5 µM (SARS-CoV-2 [1]; Severe acute respiratory syndrome coronavirus 2, Vero C1008, Vero E6, chloroquine 5 uM, replicates): 85.1%
- IC50 (SARS-CoV-2 [1]; Severe acute respiratory syndrome coronavirus 2, Vero C1008, Vero E6, MOI 0.01, 48 hours, single drug): 0.83 µM
- %inhibition (plaque assay) (SARS-CoV-2 [1]; Vero E6, chloroquine 0.15625 uM, replicates): 5.00% and 10.00%
- %inhibition (plaque assay) (SARS-CoV-2 [1]; Vero E6, chloroquine 0.3125 uM, replicates): 15.00% and 6.06% and 11.00%
- %inhibition (plaque assay) (SARS-CoV-2 [1]; Vero E6, chloroquine 0.625 uM, replicates): 55.50%
- %inhibition (plaque assay) (SARS-CoV-2 [1]; Vero E6, chloroquine 1.25 uM, replicates): 73.20% and 66.30%
- %inhibition (plaque assay) (SARS-CoV-2 [1]; Vero E6, chloroquine 2.5 uM, replicates): 75.00% and 69.50%
- %inhibition (plaque assay) (SARS-CoV-2 [1]; Vero E6, chloroquine 5 uM, replicates): 87.00% and 85.00%
- viability at 48 h, 40 uM ([2]; chloroquine 40 uM): 78.5%
- viability at 48 h, 160 uM ([2]; chloroquine 160 uM): 34.5%
- %inhibition (qRT-PCR) (SARS-CoV-2 [3]; Vero E6, chloroquine 0.15625 uM): 14.20% and 15.40% and 13.50%
- %inhibition (qRT-PCR) (SARS-CoV-2 [3]; Vero E6, chloroquine 0.3125 uM): 29.59% and 23.98%
- %inhibition (qRT-PCR) (SARS-CoV-2 [3]; Vero E6, chloroquine 0.625 uM): 47.22% and 54.26% and 49.79%
- %inhibition (qRT-PCR) (SARS-CoV-2 [3]; Vero E6, chloroquine 1.25 uM): 51.48% and 58.46% and 54.05%
- %inhibition (qRT-PCR) (SARS-CoV-2 [3]; Vero E6, chloroquine 2.5 uM): 67.75% and 70.05% and 70.73%
- %inhibition (qRT-PCR) (SARS-CoV-2 [3]; Vero E6, chloroquine 5 uM): 88.11% and 84.26% and 88.40%
- % inhibition (SARS-CoV-2 [3]; Chloroquine 0.2125 uM alone): 32.17% and 30.26% and 30.74%
- % inhibition (SARS-CoV-2 [3]; Chloroquine 0.425 uM alone): 35.38% and 45.66% (2×)
- % inhibition (SARS-CoV-2 [3]; Chloroquine 0.85 uM alone): 58.25% and 55.25% and 59.67%
- % inhibition (SARS-CoV-2 [3]; Chloroquine 1.7 uM alone): 76.18% and 70.48% and 73.21%
- IC50 (SARS-CoV-2 [3]; read-out: IC50 (μM) qRT-PCR, Vero E6, MOI 0.01, 48 hours, single drug): 0.89 µM
- inhibition of SARS-CoV-2 in human lung cells (SARS-CoV-2 [4]): could not inhibit
